Laboratory results published in patent publication US8809315B2, “Combination medicaments for treating bacterial infections” (Basilea Pharmaceutica AG, priority 2007, dated 2014).

Tests used:
Assay in all cases: MIC, broth microdilution (NCCLS M7-A6)
Format in all cases: cell-based
[1] = system: Pseudomonas aeruginosa 6067 [DSM 18987]; details: P. aeruginosa 6067; combinations of equal weights; IsoSensiTest Broth + 16 μg/mL 2,2'-bipyridyl
Protocol: (§1) Antimicrobial activity of the compounds and of their combinations is determined against a selection of organisms according to standard procedures described by the National Committee for Clinical Laboratory Standards (NCCLS document M7-A6). […] In all cases the final concentration of DMSO incubated with the bacteria is less than or equal to 1%. […] Plates are incubated overnight at an appropriate temperature (30° C. or 37° C.) and optical densities assessed by eye. The MIC value is defined as the lowest compound concentration completely inhibiting visible growth of the test organism. Synergism tests are performed under the same conditions as described above but with two antimicrobial agents dispensed in checkerboard format [Isenberg H D (1992) Synergism testing: Broth microdilution checkerboard and broth macrodilution methods. In: Clinical Microbiology Procedures Manual vol. 1. Washington, D.C.: American Society for Microbiology. […] The strains used are: Pseudomonas aeruginosa 6067 (Accession number at the DSMZDeutsche Sammlung von Mikroorganismen and Zellkulturen GmbH, Inhoffenstr. 7 B, D-38124 Braunschweig: […] (DSM 18988), Achromobacter (formerly Alcaligenes) xylosoxidans QK3/96 (DSM 18991), Enterobacter aerogenes Zayakosky 5 (DSM 18992).

[2] = system: Achromobacter (formerly Alcaligenes) xylosoxidans QK3/96 [DSM 18991]; details: A. xylosoxidans QK3/96; combinations of equal weights; IsoSensiTest Broth + 16 μg/mL 2,2'-bipyridyl
Protocol: as §1

[3] = system: Enterobacter aerogenes Zayakosky 5 [DSM 18992]; details: E. aerogenes Zayakosky 5; combinations of equal weights; IsoSensiTest Broth + 16 μg/mL 2,2'-bipyridyl
Protocol: as §1

[4] = system: Pseudomonas aeruginosa (67/2B)2R.A. [DSM 18988]; details: P. aeruginosa (67/2B)2R.A.; combinations of equal weights; IsoSensiTest Broth + 16 μg/mL 2,2'-bipyridyl
Protocol: as §1

SMILES	Minimum Inhibitory Concentration [1]	Minimum Inhibitory Concentration [2]	Minimum Inhibitory Concentration [3]	Minimum Inhibitory Concentration [4]
C[C@H]1[C@H](NC(=O)/C(=N\OC(C)(C)C(=O)O)c2csc(N)n2)C(=O)N1S(=O)(=O)O [Aztreonam, (Z)-2-[[[(2-amino-4-thiazolyl)[[(2S,3S)-2-methyl-4-oxo-1-sulfo-3-azetidinyl]-carbamoyl]methylene]amino]oxy]-2-methylpropionic acid]	16 mg/L	>64 mg/L	64 mg/L	4 mg/L
C[C@H]1[C@H](NC(=O)/C(=N\OCc2cc(=O)c(O)cn2O)c2cccs2)C(=O)N1S(=O)(=O)O [Compound A, (3S)-trans-3-[(E)-2-(2-thienyl)-2-{(1,5-dihydroxy-4-pyridon-2-ylmethoxy)imino}-acetamido]-4-methyl-2-oxazetidine-1-sulfonic acid]	>64 mg/L	>64 mg/L	>64 mg/L	>64 mg/L
C[C@H]1[C@H](NC(=O)/C(=N/OCc2cc(=O)c(O)cn2O)c2cccs2)C(=O)N1S(=O)(=O)O [Compound B]	>64 mg/L	>64 mg/L	>64 mg/L	>64 mg/L
CC1(C)[C@H](NC(=O)/C(=N\OCc2cc(=O)c(O)cn2O)c2csc(N)n2)C(=O)N1OS(=O)(=O)O [Compound of formula I, (3S)-3-{(2Z)-2-(2-amino(1,3-thiazol-4-yl))-3-[(1,5-dihydroxy-4-oxo(2-hydropyridyl))methoxy]-3-azaprop-2-enoylamino}-4,4-dimethyl-2-oxoazetidinyl hydroxysulfonate]	16 mg/L	16 mg/L	16 mg/L	32 mg/L
C[C@@H](O)[C@H]1C(=O)N2C(C(=O)O)=C(S[C@@H]3CN[C@H](CNS(N)(=O)=O)C3)[C@H](C)[C@H]12 [Doripenem]	16 mg/L	16 mg/L	8 mg/L	4 mg/L
C[C@@H](O)[C@H]1C(=O)N2C(C(=O)O)=C(S[C@@H]3CN[C@H](C(=O)Nc4cccc(C(=O)O)c4)C3)[C@H](C)[C@H]12 [Ertapenem]	>32 mg/L	>32 mg/L	>32 mg/L	>32 mg/L
C[C@@H](O)[C@H]1C(=O)N2C(C(=O)O)=C(SCCN=CN)C[C@H]12 [Imipenem]	4 mg/L	4 mg/L	32 mg/L	16 mg/L
C[C@@H](O)[C@H]1C(=O)N2C(C(=O)O)=C(S[C@@H]3CN[C@H](C(=O)N(C)C)C3)[C@H](C)[C@H]12 [Meropenem]	16 mg/L	16 mg/L	16 mg/L	4 mg/L
